Measurements from ChEMBL document CHEMBL1909046, “DrugMatrix in vitro pharmacology data”.

Key:
[1] = target: Sodium-dependent noradrenaline transporter (Homo sapiens, UniProt P23975); test: DRUGMATRIX: Norepinephrine Transporter radioligand binding (ligand: [125I] RTI-55); assay type: cell membranes, MDCK, Membrane; settings: Not Active = under 50% inhibition at 10 µM
[2] = DRUGMATRIX: Calcium Channel Type L, Dihydropyridine radioligand binding (ligand: [3H] Nitrendipine); assay type: cell membranes, Rattus norvegicus, Wistar, Cerebral cortex, Membrane; settings: Not Active = under 50% inhibition at 10 µM
[3] = DRUGMATRIX: Glutamate, NMDA, Phencyclidine radioligand binding (ligand: [3H] TCP); assay type: cell membranes, Rattus norvegicus, Wistar, Cerebral cortex, Membrane; settings: Not Active = under 50% inhibition at 10 µM
[4] = target: T1, Progesterone receptor (Bos taurus, UniProt Q690N0); test: DRUGMATRIX: Progesterone radioligand binding (ligand: [3H] R-5020); assay type: tissue-based, Uterus; settings: Not Active = under 50% inhibition at 10 µM
T1 sequence (Q690N0 whole entry): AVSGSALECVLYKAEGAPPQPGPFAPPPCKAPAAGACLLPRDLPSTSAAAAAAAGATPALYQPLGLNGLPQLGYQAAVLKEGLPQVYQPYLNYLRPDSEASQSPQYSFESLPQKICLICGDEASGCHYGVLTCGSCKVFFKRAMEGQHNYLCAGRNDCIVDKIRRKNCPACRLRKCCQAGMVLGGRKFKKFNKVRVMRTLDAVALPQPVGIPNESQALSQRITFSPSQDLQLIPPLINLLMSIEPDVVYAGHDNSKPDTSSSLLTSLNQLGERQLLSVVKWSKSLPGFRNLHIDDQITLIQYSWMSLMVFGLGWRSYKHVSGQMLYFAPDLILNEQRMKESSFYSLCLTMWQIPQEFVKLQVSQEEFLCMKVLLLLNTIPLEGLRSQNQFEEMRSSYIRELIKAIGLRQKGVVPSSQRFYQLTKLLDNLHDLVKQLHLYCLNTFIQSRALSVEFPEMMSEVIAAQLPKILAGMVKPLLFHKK

[5] = target: Receptor tyrosine-protein kinase erbB-2 (Homo sapiens, UniProt P04626); test: biochemical; assay type: cell-based, Insect cells; settings: insect cells;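 further: inhibition of HER2 kinase enzyme activity, measured with Poly(Glu:Tyr) as the phosphorylation substrate; in other assays of this panel Not Active means under 50% inhibition at 10 µM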

Sequence of Sodium-dependent noradrenaline transporter (P23975 whole entry): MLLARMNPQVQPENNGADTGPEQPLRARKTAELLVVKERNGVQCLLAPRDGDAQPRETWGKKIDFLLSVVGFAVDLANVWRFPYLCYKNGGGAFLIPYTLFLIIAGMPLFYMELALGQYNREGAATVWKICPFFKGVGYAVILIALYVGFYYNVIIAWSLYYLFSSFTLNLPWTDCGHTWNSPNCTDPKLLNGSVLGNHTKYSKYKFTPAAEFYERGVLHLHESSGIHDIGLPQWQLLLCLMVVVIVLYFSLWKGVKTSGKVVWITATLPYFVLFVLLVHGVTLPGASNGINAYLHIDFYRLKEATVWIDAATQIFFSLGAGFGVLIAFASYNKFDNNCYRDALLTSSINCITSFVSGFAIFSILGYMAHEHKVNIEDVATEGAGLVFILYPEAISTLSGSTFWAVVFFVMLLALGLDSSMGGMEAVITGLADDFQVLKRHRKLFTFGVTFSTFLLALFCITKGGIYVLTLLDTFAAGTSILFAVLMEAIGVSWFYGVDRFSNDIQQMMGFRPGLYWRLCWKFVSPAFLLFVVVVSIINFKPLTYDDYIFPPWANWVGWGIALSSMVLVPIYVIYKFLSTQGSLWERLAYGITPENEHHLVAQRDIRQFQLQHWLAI

Row | Compound | IC50 ([1]; mdck) | IC50 [2] | Ki [2] | IC50 [3] | Ki [3] | IC50 [4] | IC50 [5] | IC50 ([1]; read-out: IC50) | Ki ([1]; read-out: Ki) | Ki ([1]; mdck) | Ki [4] | IC50 ([5]; read-out: IC50) | Ki [5]
1 | Cc1ccccc1N1C(=O)c2cc(S(N)(=O)=O)c(Cl)cc2NC1C (stereo not drawn) [METOLAZONE] | Not Active | Not Active | Not Active | Not Active | Not Active | Not Active | Not Active | – | – | – | – | – | –
2 | COCCc1ccc(OCC(O)CNC(C)C)cc1 (stereo not drawn) [METOPROLOL] | Not Active | Not Active | Not Active | Not Active | Not Active | Not Active | Not Active | – | – | – | – | – | –
3 | CCn1cc(C(=O)O)c(=O)c2cc(F)c(N3CCNCC3)cc21 [NORFLOXACIN] | Not Active | Not Active | Not Active | Not Active | Not Active | Not Active | Not Active | – | – | – | – | – | –
4 | NC1=NC(=O)C(c2ccccc2)O1 (stereo not drawn) [PEMOLINE] | Not Active | Not Active | Not Active | Not Active | Not Active | Not Active | Not Active | – | – | – | – | – | –
5 | Nc1nc2c(ncn2CCC(CO)CO)c(=O)[nH]1 [PENCICLOVIR] | Not Active | Not Active | Not Active | Not Active | Not Active | Not Active | Not Active | – | – | – | – | – | –
6 | C=C(C)C1(O)OC(=O)C=C1OC (stereo not drawn) [PENICILLIC ACID] | Not Active | Not Active | Not Active | Not Active | Not Active | Not Active | Not Active | – | – | – | – | – | –
7 | CC1(C)S[C@@H]2[C@H](NC(=O)Cc3ccccc3)C(=O)N2[C@H]1C(=O)O [PENICILLIN G] | Not Active | Not Active | Not Active | Not Active | Not Active | Not Active | Not Active | – | – | – | – | – | –
8 | CCCN1C[C@H](CSC)C[C@@H]2c3cccc4[nH]cc(c34)C[C@H]21 [PERGOLIDE] | Not Active | Not Active | Not Active | Not Active | Not Active | Not Active | Not Active | – | – | – | – | – | –
9 | C1CCC(C(CC2CCCCN2)C2CCCCC2)CC1 (stereo not drawn) [PERHEXILINE] | – | Not Active | Not Active | Not Active | Not Active | Not Active | Not Active | 3290 nM | 3270 nM | – | – | – | –
10 | CCOc1ccc(NC(C)=O)cc1 [PHENACETIN] | Not Active | Not Active | Not Active | Not Active | Not Active | Not Active | Not Active | – | – | – | – | – | –
11 | Cc1ccc(N(CC2=NCCN2)c2cccc(O)c2)cc1 [PHENTOLAMINE] | Not Active | Not Active | Not Active | Not Active | Not Active | Not Active | Not Active | – | – | – | – | – | –
12 | CNNCc1ccc(C(=O)NC(C)C)cc1 [PROCARBAZINE] | Not Active | Not Active | Not Active | Not Active | Not Active | Not Active | Not Active | – | – | – | – | – | –
13 | CN(C)CCCN1c2ccccc2Sc2ccccc21 [PROMAZINE] | – | Not Active | Not Active | Not Active | Not Active | Not Active | Not Active | 13 nM | 13 nM | – | – | – | –
14 | CC(O)CO (stereo not drawn) [PROPYLENE GLYCOL] | Not Active | Not Active | Not Active | Not Active | Not Active | Not Active | Not Active | – | – | – | – | – | –
15 | CADMIUM ACETATE | Not Active | Not Active | Not Active | Not Active | Not Active | Not Active | – | – | – | Not Active | Not Active | 1190 nM | –
16 | LEAD (II) ACETATE | Not Active | Not Active | Not Active | Not Active | Not Active | Not Active | Not Active | – | – | Not Active | Not Active | – | Not Active
17 | LIPOPOLYSACCHARIDE E. COLI O55:B5 | Not Active | Not Active | Not Active | Not Active | Not Active | Not Active | – | – | – | Not Active | Not Active | 449 nM | –
